Results on eight compounds are retold here after ChEMBL document CHEMBL3991601, “The target landscape of clinical kinase drugs” (Science, 2017).

Activity calls are given as the source filed them. Rule as the data show it, for most assays here: actives have a measured Kd and inactives only a lower limit. A value given as a limit tells only on which side of the number the result lay.

Experiment [1] deals with Mitogen-activated protein kinase 9 (Homo sapiens, UniProt P45984).
Experiment [2] concerns the target T1, Delta(24)-sterol reductase (Homo sapiens, UniProt Q15392).
T1 sequence (Q15392 whole entry): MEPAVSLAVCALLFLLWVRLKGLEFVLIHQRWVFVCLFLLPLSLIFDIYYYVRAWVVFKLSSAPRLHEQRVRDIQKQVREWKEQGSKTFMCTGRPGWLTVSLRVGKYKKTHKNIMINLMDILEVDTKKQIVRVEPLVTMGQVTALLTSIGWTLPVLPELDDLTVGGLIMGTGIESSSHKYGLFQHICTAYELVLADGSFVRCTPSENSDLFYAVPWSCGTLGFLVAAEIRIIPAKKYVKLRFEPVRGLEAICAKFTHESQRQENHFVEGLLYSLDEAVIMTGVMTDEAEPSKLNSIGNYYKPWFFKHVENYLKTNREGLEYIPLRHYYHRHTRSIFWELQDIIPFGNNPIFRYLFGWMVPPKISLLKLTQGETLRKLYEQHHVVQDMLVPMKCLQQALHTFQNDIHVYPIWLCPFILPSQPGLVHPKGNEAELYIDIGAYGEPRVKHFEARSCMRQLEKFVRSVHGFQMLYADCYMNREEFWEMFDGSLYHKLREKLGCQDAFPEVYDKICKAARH

The next experiment has as its target T2, Aurora kinase A (Homo sapiens, UniProt O14965).
T2 sequence (O14965 whole entry): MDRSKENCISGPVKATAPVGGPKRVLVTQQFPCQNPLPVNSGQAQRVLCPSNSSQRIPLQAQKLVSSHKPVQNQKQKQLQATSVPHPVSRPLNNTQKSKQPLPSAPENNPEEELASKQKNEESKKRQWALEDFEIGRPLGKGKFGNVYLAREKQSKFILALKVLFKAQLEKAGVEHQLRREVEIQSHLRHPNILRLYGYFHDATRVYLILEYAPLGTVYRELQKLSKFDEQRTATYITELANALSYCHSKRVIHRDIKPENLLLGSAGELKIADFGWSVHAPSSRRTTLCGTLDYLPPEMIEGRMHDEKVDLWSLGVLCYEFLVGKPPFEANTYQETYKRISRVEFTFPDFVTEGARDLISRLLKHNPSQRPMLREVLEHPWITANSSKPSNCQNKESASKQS

Experiment [3] deals with Putative heat shock protein HSP 90-beta 2 (Homo sapiens, UniProt Q58FF8).
For experiment [4], the target named is Cyclin-dependent kinase 2 (Homo sapiens, UniProt P24941).
The target of experiment [5] is Protein kinase C delta type (Homo sapiens, UniProt Q05655).
In experiment [6] the target is Glycogen synthase kinase-3 alpha (Homo sapiens, UniProt P49840).
The target in experiment [7] is T3, ATP-dependent RNA helicase DDX42 (Homo sapiens, UniProt Q86XP3).
T3 sequence (Q86XP3 whole entry): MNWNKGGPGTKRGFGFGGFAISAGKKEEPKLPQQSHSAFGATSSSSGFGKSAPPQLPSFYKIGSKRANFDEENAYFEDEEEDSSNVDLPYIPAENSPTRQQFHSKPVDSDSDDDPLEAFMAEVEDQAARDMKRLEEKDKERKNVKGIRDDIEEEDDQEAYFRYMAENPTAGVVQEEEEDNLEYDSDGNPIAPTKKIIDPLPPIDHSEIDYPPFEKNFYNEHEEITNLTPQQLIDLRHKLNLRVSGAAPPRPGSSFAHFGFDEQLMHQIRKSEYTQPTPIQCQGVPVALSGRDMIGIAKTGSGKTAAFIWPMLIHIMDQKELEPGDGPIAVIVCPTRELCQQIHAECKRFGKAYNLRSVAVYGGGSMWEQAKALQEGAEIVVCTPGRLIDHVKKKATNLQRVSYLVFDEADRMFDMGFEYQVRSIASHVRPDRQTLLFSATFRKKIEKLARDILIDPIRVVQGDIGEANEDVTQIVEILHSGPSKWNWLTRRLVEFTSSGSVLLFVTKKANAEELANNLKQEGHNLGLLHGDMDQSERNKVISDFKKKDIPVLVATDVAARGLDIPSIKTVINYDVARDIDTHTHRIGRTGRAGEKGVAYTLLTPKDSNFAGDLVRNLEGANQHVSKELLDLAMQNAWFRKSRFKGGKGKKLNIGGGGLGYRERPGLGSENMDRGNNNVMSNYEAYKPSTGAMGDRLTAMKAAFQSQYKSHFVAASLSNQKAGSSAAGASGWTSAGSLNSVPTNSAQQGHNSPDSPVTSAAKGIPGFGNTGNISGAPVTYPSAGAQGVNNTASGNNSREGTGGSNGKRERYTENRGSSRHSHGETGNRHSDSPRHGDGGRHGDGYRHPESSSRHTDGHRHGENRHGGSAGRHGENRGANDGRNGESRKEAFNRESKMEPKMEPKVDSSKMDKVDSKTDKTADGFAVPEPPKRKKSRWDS

For experiment [8], the target named is T4, Cytochrome c1, heme protein, mitochondrial (Homo sapiens, UniProt P08574).
T4 sequence (P08574 whole entry): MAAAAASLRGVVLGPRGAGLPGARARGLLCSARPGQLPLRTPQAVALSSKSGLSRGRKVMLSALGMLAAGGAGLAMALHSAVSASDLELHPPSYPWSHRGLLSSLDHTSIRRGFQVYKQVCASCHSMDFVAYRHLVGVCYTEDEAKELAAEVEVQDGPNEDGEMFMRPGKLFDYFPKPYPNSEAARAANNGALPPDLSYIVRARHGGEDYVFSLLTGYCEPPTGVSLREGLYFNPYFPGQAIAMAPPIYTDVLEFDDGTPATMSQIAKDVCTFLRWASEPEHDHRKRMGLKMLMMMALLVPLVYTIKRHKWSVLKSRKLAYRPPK

The target of experiment [9] is T5, Ribosyldihydronicotinamide dehydrogenase [quinone] (Homo sapiens, UniProt P16083).
T5 sequence (P16083 whole entry): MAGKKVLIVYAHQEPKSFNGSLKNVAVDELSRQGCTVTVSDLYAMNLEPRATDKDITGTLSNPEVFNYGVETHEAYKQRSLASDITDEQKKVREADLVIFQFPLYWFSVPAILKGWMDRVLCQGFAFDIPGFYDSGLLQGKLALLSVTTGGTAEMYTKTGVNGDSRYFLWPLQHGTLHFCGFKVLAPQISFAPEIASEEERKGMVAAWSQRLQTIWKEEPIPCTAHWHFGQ

The target of experiment [10] is Casein kinase I isoform gamma-1 (Homo sapiens, UniProt Q9HCP0).
Experiment [11] concerns the target Calcium/calmodulin-dependent protein kinase type II subunit gamma (Homo sapiens, UniProt Q13555).
Experiment [12] concerns the target S-adenosylmethionine synthase isoform type-2 (Homo sapiens, UniProt P31153).
Also: in the data inactive means no Kd found up to 30 µM.

Glycogen synthase kinase-3 alpha, sequence (P49840 whole entry): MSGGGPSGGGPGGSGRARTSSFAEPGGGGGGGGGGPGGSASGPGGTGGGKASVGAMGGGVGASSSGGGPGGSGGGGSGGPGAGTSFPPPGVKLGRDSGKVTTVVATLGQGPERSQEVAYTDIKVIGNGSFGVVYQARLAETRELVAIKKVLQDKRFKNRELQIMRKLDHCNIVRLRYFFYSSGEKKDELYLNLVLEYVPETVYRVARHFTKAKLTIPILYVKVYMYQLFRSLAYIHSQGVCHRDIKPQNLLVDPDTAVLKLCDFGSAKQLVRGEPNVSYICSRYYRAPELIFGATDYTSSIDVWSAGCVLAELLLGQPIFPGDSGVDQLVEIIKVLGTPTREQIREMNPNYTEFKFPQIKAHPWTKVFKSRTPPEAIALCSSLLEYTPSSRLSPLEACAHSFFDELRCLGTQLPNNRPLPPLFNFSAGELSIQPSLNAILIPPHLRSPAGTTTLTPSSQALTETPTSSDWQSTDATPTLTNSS
Mitogen-activated protein kinase 9, sequence (P45984 whole entry): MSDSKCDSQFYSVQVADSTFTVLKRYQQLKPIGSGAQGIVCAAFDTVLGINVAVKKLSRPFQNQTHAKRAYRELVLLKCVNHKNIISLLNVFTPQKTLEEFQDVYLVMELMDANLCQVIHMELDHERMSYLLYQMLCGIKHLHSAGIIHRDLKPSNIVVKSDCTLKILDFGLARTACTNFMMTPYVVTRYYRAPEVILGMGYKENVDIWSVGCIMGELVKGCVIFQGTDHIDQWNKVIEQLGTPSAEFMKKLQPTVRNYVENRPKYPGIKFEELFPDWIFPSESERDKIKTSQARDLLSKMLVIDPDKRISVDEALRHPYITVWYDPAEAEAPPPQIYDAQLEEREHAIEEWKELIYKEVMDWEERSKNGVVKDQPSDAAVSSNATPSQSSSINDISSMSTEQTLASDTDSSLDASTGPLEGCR
Putative heat shock protein HSP 90-beta 2, sequence (Q58FF8 whole entry): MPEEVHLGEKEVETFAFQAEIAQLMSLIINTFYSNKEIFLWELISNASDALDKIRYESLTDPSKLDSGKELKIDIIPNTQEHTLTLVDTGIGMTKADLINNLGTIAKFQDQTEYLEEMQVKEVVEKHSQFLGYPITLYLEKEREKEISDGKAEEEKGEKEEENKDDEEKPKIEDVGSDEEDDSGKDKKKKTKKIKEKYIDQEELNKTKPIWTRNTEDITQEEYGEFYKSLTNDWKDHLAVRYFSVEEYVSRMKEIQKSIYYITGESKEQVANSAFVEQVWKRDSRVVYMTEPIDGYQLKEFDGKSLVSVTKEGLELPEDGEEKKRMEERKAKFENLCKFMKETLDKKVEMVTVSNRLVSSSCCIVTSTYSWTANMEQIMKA
Protein kinase C delta type, sequence (Q05655 whole entry): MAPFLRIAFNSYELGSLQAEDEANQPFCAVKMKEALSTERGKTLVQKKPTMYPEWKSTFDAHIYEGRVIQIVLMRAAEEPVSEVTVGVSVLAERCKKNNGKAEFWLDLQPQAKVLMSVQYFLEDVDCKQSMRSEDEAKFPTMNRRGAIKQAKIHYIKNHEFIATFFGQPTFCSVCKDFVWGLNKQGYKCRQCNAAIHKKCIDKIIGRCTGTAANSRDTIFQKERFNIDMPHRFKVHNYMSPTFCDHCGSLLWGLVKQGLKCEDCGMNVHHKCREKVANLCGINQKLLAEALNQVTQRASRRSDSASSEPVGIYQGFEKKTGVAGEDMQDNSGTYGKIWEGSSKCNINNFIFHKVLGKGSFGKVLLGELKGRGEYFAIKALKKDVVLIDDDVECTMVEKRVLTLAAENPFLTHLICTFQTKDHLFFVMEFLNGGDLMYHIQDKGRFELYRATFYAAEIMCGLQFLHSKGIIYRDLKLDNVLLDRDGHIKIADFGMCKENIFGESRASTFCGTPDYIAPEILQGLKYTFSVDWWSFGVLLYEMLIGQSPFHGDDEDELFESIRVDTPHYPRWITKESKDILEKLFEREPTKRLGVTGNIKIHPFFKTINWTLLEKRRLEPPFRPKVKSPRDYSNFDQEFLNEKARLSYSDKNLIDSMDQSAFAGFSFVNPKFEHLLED
Casein kinase I isoform gamma-1, sequence (Q9HCP0 whole entry, canonical isoform): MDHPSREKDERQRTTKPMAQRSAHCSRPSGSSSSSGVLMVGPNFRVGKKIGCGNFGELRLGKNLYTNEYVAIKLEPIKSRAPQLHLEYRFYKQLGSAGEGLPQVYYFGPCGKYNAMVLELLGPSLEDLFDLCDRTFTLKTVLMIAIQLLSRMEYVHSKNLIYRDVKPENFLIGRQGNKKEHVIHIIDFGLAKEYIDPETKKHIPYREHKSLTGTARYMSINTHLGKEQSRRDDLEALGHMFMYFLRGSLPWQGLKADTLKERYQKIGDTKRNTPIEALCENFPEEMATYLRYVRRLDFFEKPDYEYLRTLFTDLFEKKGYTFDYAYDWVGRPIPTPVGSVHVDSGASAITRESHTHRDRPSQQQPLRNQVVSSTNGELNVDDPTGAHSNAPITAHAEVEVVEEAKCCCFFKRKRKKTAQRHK
S-adenosylmethionine synthase isoform type-2, sequence (P31153 whole entry, canonical isoform): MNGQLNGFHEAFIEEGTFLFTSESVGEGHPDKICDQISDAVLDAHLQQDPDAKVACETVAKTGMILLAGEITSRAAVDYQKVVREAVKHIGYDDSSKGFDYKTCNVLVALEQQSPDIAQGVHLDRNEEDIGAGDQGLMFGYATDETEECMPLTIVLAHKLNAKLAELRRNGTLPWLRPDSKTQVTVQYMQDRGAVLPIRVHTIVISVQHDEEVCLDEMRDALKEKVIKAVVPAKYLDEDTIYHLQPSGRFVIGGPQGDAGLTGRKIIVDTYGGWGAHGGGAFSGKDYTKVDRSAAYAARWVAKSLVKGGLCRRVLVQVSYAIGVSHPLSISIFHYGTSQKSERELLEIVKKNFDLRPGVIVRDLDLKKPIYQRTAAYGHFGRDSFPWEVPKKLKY
Calcium/calmodulin-dependent protein kinase type II subunit gamma, sequence (Q13555 whole entry, canonical isoform): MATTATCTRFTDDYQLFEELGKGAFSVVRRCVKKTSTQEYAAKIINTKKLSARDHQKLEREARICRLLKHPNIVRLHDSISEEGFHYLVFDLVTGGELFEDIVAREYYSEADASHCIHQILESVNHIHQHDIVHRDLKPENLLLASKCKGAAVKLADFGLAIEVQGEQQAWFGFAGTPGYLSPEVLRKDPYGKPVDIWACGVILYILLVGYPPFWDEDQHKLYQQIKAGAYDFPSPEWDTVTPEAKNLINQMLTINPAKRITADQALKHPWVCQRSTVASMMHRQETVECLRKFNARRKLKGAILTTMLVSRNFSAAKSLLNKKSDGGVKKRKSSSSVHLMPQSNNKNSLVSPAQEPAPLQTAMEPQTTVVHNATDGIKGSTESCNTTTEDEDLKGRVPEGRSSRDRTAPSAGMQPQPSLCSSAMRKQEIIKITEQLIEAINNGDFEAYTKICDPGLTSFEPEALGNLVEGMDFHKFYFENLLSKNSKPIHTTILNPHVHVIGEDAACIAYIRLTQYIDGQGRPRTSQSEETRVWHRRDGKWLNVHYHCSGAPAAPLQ

What is called Kd is the free concentration of one partner at which half of the binding sites on the other are occupied at equilibrium, for simple one-to-one binding. As to `Nc1ncnc2c1c(-c1cccc(OCc3ccccc3)c1)cn2[C@H]1C[C@@H](CN2CCC2)C1` [AEW-541], the Kd (in experiment [1]; in experiment [2]; at Aurora kinase A; in [3]; in experiment [4]; in experiment [5]) was > 30 µM (inactive) in each case. Besides, the Kd in experiment [6], in experiment [7], in experiment [8], in experiment [9], in [10] and in [11] was > 30 µM (inactive) in each case.

For the compound `Cc1nc(NC(=O)N2CCC[C@H]2C(N)=O)sc1-c1ccnc(C(C)(C)C(F)(F)F)c1` [ALPELISIB], the Kd (in [1]; in experiment [2]; at Aurora kinase A; in experiment [3]; in experiment [4]; in [5]) was > 30 µM (inactive) in each case. The Kd in [12], in [6], in experiment [8], in [9], in experiment [10] and in experiment [11] was > 30 µM (inactive) throughout.

For `Cc1cc(C(=O)NOCCO)c(Nc2ccc(I)cc2F)n(C)c1=O` [AZD-8330], the Kd (in [1]; in [2]; on Aurora kinase A; in experiment [3]; in experiment [4]; in [5]) was > 30 µM (inactive) each time. The Kd in [6], in experiment [7], in experiment [8], in [9], in experiment [10] and in [11] was > 30 µM (inactive) each time.

Turning to `COc1ccc(S(=O)(=O)N(C(C)=O)c2ccccc2/C=C/c2cc[n+]([O-])cc2)cc1` [HMN-214], the Kd (in experiment [1]; in experiment [2]; at Aurora kinase A; in experiment [3]; in experiment [4]; in experiment [5]) was > 30 µM (inactive) each time. For the same compound, the Kd in [12], in experiment [6], in experiment [8], in experiment [9], in [10] and in [11] was > 30 µM (inactive) each time.

Take `COc1ncc(-c2ccc3nccc(-c4ccnnc4)c3c2)cc1NS(=O)(=O)c1ccc(F)cc1F` [OMIPALISIB]: the Kd (in [1]; in experiment [2]; at Aurora kinase A; in [3]; in experiment [4]; in experiment [5]) was > 30 µM (inactive) throughout. Besides, the Kd in experiment [12], in experiment [6], in experiment [8], in experiment [9], in experiment [10] and in [11] was > 30 µM (inactive) throughout.

Regarding `CO[C@H]1C[C@@H]2CC[C@@H](C)[C@@](O)(O2)C(=O)C(=O)N2CCCC[C@H]2C(=O)O[C@H]([C@H](C)C[C@@H]2CC[C@@H](OP(C)(C)=O)[C@H](OC)C2)CC(=O)[C@H](C)/C=C(\C)[C@@H](O)[C@@H](OC)C(=O)[C@H](C)C[C@H](C)/C=C/C=C/C=C/1C` [RIDAFOROLIMUS], the Kd (in experiment [1]; in experiment [2]; on Aurora kinase A; in experiment [4]; in experiment [5]; in experiment [6]) was > 30 µM (inactive) each time. In addition, the Kd in [7], in experiment [8], in experiment [9], in experiment [10] and in [11] was > 30 µM (inactive) throughout.

For the compound `CO[C@H]1C[C@@H]2CC[C@@H](C)[C@@](O)(O2)C(=O)C(=O)N2CCCC[C@H]2C(=O)O[C@H]([C@H](C)C[C@@H]2CC[C@@H](O)[C@H](OC)C2)CC(=O)[C@H](C)/C=C(\C)[C@@H](O)[C@@H](OC)C(=O)[C@H](C)C[C@H](C)/C=C/C=C/C=C/1C` [SIROLIMUS], the Kd (in experiment [1]; in experiment [2]; on Aurora kinase A; in experiment [3]; in [4]; in [5]) was > 30 µM (inactive) in each case. The Kd in experiment [12], in [6], in experiment [8], in experiment [9], in [10] and in [11] was > 30 µM (inactive) in each case.

Consider `CC(C)c1cc(CNc2nc(Nc3cc(C4CC4)[nH]n3)cc(N3CCN(C)CC3)n2)on1` [XL-228], for which the Kd in experiment [1] is > 30 µM (inactive); in [2], > 30 µM (inactive); on Aurora kinase A, 0.003 µM (active); in [3] it was > 30 µM (inactive); in [4] it was > 30 µM (inactive); in experiment [5], > 30 µM (inactive). Also, the Kd in experiment [12], in [6], in experiment [8], in experiment [9], in experiment [10] and in experiment [11] was > 30 µM (inactive) in each case.
